From the NIST ThermoML archive (doi:10.1016/j.jct.2015.05.027)

Details: Liquid, Vibrating tube method

CCC(C)O (centres undefined) [butan-2-ol]
mass density [kg/m3]
Details | 293.15 K | 298.15 K | 313.15 K | 333.15 K | 353.21 K | 373.24 K | 393.27 K
100 kPa | 806.7 | 802.6 | 789.5 | 770.8 | 750.3 | – | –
1000 kPa | 807.4 | 803.3 | 790.3 | 771.7 | 751.4 | 729.1 | 704.8
5000 kPa | 810.4 | 806.4 | 793.6 | 775.6 | 756 | 734.5 | 711.4
10000 kPa | 814 | 810.1 | 797.7 | 780.2 | 761.3 | 740.8 | 718.8
15000 kPa | 817.4 | 813.6 | 801.6 | 784.6 | 766.4 | 746.6 | 725.6
20000 kPa | 820.7 | 817 | 805.2 | 788.8 | 771 | 751.9 | 731.7
25000 kPa | 823.9 | 820.2 | 808.5 | 792.6 | 775.4 | 757 | 737.4
30000 kPa | 826.9 | 823.4 | 812.1 | 796.3 | 779.5 | 761.6 | 742.7
35000 kPa | 829.9 | 826.3 | 815.3 | 800 | 783.5 | 766.1 | 747.8
40000 kPa | 832.7 | 829.2 | 818.4 | 803.4 | 787.2 | 770.4 | 752.5
45000 kPa | 835.4 | 832 | 821.3 | 806.6 | 790.8 | 774.4 | 757
50000 kPa | 838.1 | 834.7 | 824.2 | 809.7 | 794.5 | 778.1 | 761.2
55000 kPa | 840.6 | 837.4 | 827 | 812.8 | 797.7 | 781.9 | 765.4
60000 kPa | 843.2 | 839.9 | 829.8 | 815.8 | 801 | 785.4 | 769.2
65000 kPa | 845.7 | 842.4 | 832.5 | 818.7 | 804.1 | 788.8 | 773
70000 kPa | 848 | 844.8 | 835 | 821.4 | 807.2 | 792.1 | 776.6
80000 kPa | 852.6 | 849.5 | 839.9 | 826.7 | 812.9 | 798.5 | 783.4
90000 kPa | 857.1 | 854 | 844.7 | 831.9 | 818.3 | 804.3 | 789.8
100000 kPa | 861.2 | 858.2 | 849.1 | 836.7 | 823.5 | 809.8 | 795.8
110000 kPa | 865.3 | 862.4 | 853.4 | 841.2 | 828.5 | 815.1 | 801.5
120000 kPa | 869.2 | 866.2 | 857.5 | 845.5 | 833.1 | 820.1 | 806.8
130000 kPa | 873 | 870.1 | 861.5 | 849.8 | 837.6 | 824.9 | 811.9
140000 kPa | 876.6 | 873.7 | 865.4 | 853.8 | 842 | 829.5 | 816.8
